Non-standard residues stand in square brackets, D forms with d. Residues, ends and D or L forms follow the SMILES beside them. pGlu = O=C1CC[C@@H](C(=O)O)N1
Assays:
[1] = tested on: lymphocytes of patients suffering from rheumatoid arthritis; experiment: Active E-rosette test, lymphocytes of rheumatoid arthritis patients; format: cell-based, human; settings: for E-rosette forming activity, percentage amount of active lymphocytes: n = 4
Experimental: (§1) The active E-rosette test was carried out according to a modified method of Wybran et al [Wybran et al: New Engl. J. Med. 292, 475 (1975)] by the lymphocites of healthy and autoimmune patients (rheumatoid arthritis and systemic lupus erythematosus). To 50 μl of a lymphocyte cell suspension 10^-3 -10^-11 moles/lit. solutions of the test material were added and the mixture was incubated in an atmosphere containing 5.0% of carbon dioxide, at 37° C. for 60 minutes. Thereafter 50 μlit. of a 1% sheep erythrocite suspension were added and the mixture was centrifuged at 1000 r.p.m. for 10 minutes followed by shaking with a modified Gallenkampf-shaker (shaking time: 30 sec, stroke: 8 cm, shaking frequency: 65/min.). The rosettes were fixed with a 0.1% glutaric aldehyde (50 μlit. for each tube, 3 min.). Lymphocytes bonding more than three sheep erythrocite were counted under a microscope and 4×100 cells were evaluated. The separated lymphocytes contain macrophages and polymorphonuclear cells (up to 10%) as an impurity. The number of the cells forming the rosettes was corrected by this value each case.

[2] = tested on: lymphocytes of healthy persons; experiment: Active E-rosette test, lymphocytes of healthy persons; format: cell-based, human; settings: for E-rosette forming activity, percentage amount of active lymphocytes: n = 4
Experimental: as §1

[3] = tested on: antibody production against sheep erythrocyte; experiment: Effect on antibody production (Ceglowski's method), agglutination titer; format: in vivo, H. Wistar rats
Experimental: (1) The effect on antibody production was tested according to Ceglowski's method [Ceglowski: Ann. N.Y. Acad. Sci. 249, 343 (1975)]. New-born H. Wistar rats were treated with single 25 μlit. doses of 4×10^-3 -4×10^-7 moles/lit. of the test material (9 animals for each dose) at the latest at the 12th hour after birth. The 14-day animals were then immunized with a sheep erythrocyte suspension administering 0.5 ml. of a 5% sheep erythrocyte suspension each animal intraperitoneally. On the 7th day after immunization the animals were decapitated. The blood of three animals was mixed and from the serum obtained (after centrifuging at 3000 r.p.m. for 10 minutes) the titers for antibodies were determined by the method of Takatsy [Takatsy: Acta Microbiol. Acad. Sci. Hung. 3, 191 (1955)]. The results are expressed in agglutination titers. The titer corresponds to the […] dilution of the serum in which agglutination can be observed.

[4] = single 25 μlit. dose of 4·10^-3 moles/liter to new-born rats
[5] = single 25 μlit. dose of 4·10^-5 moles/liter to new-born rats
[6] = single 25 μlit. dose of 4·10^-7 moles/liter to new-born rats

SMILES	E-rosette forming activity, percentage amount of active lymphocytes ([1]; 10^-3 moles/liter)	E-rosette forming activity, percentage amount of active lymphocytes ([1]; 10^-5 moles/liter)	E-rosette forming activity, percentage amount of active lymphocytes ([1]; 10^-7 moles/liter)	E-rosette forming activity, percentage amount of active lymphocytes ([1]; 10^-9 moles/liter)	E-rosette forming activity, percentage amount of active lymphocytes ([1]; 10^-11 moles/liter)	E-rosette forming activity, percentage amount of active lymphocytes ([2]; 10^-3 moles/liter)	E-rosette forming activity, percentage amount of active lymphocytes ([2]; 10^-5 moles/liter)	E-rosette forming activity, percentage amount of active lymphocytes ([2]; 10^-7 moles/liter)	E-rosette forming activity, percentage amount of active lymphocytes ([2]; 10^-9 moles/liter)	E-rosette forming activity, percentage amount of active lymphocytes ([2]; 10^-11 moles/liter)	Effect on E-rosette forming activity (in words) ([2]; 10^-9 moles/lit.)	Effect on E-rosette forming activity (in words) ([1]; 10^-7 moles/lit.)	Antibody production, agglutination titer (X ± S.D.) [3, 4]	Antibody production, agglutination titer (X ± S.D.) [3, 5]	Antibody production, agglutination titer (X ± S.D.) [3, 6]	Effect on E-rosette forming activity (in words) ([2]; 10^-11 moles/lit.)	In vivo effect on the antibody production (in words) ([3]; 4.10^-7 moles/lit.)	Effect on E-rosette forming activity (in words) ([1]; 10^-9 moles/lit.)	Effect on E-rosette forming activity (in words) ([1]; 10^-11 moles/lit.)	Effect on E-rosette forming activity (in words) ([1]; 10^-5 moles/lit.)
CC(C)[C@H](NC(=O)[C@H](CC(=O)O)NC(=O)[C@H](C)NC(=O)[C@@H](N)CCCNC(=N)N)C(=O)O [Arg--Ala--Asp--Val, Arg-Ala-Asp-Val] (H-RADV-OH)	21.8%	20.2%	19.8%	20.7%	22.5%	32.5%	33.4%	32.4%	38.2%	36.0%	–	–	–	–	–	–	–	–	–	–
CC(C)[C@H](NC(=O)[C@H](CCCCN)NC(=O)[C@H](CC(=O)O)NC(=O)[C@@H](N)CCCNC(=N)N)C(=O)O [Arg--Asp--Lys--Val, Arg-Asp-Lys-Val] (H-RDKV-OH)	25.4%	26.2%	26.4%	27.3%	27.5%	34.2%	37.5%	37.7%	40.4%	36.4%	significant stimulating effect	–	–	–	–	–	–	–	–	–
CC(C)[C@H](NC(=O)[C@H](C)NC(=O)[C@H](CCCCN)NC(=O)[C@@H](N)CCCNC(=N)N)C(=O)O [Arg--Lys--Ala--Val, Arg-Lys-Ala-Val] (H-RKAV-OH)	20.3%	23.4%	21.7%	25.5%	23.1%	33.3%	30.5%	35.8%	34.5%	30.9%	–	–	–	–	–	–	–	–	–	–
CC(C)[C@H](NC(=O)[C@H](CC(N)=O)NC(=O)[C@H](CCCCN)NC(=O)[C@@H](N)CCCNC(=N)N)C(=O)O [Arg--Lys--Asn--Val, Arg-Lys-Asn-Val] (H-RKNV-OH)	22.3%	21.9%	24.6%	23.7%	24.3%	35.5%	39.1%	–	35.4%	36.7%	–	–	–	–	–	–	–	–	–	–
CC[C@H](C)[C@H](NC(=O)[C@H](CC(=O)O)NC(=O)[C@H](CCCCN)NC(=O)[C@@H](N)CCCNC(=N)N)C(=O)O [Arg--Lys--Asp--Ile, Arg-Lys-Asp-Ile] (H-RKDI-OH)	25.5%	25.4%	23.2%	28.7%	24.5%	35.5%	32.0%	34.9%	35.0%	30.7%	–	–	–	–	–	–	–	–	–	–
COC(=O)[C@@H](NC(=O)[C@H](CC(=O)O)NC(=O)[C@H](CCCCN)NC(=O)[C@@H](N)CCCNC(=N)N)C(C)C [Arg--Lys--Asp--Val--OMe, Arg-Lys-Asp-Val-OMe] (H-RKDV-OMe)	31.2%	30.8%	32.4%	27.9%	26.5%	26.8%	27.2%	29.4%	24.8%	23.8%	–	stimulating effect	6.0 ± 1.7	4.5 ± 0.5	5.5 ± 2.6	–	–	–	–	–
CC(C)[C@H](NC(=O)[C@H](CCC(=O)O)NC(=O)[C@H](CCCCN)NC(=O)[C@@H](N)CCCNC(=N)N)C(=O)O [Arg--Lys--Glu--Val, Arg-Lys-Glu-Val] (H-RKEV-OH)	–	–	–	–	–	33.2%	32.9%	36.2%	35.4%	33.0%	–	–	–	–	–	–	–	–	–	–
N=C(N)NCCC[C@H](NC(=O)[C@@H]1CCC(=O)N1)C(=O)N[C@@H](CCCCN)C(=O)N[C@@H](CC(=O)O)C(=O)O [Glp--Arg--Lys--Asp, Glp-Arg-Lys-Asp] ([pGlu]RKD-OH)	20.6%	18.7%	19.5%	19.7%	18.4%	29.1%	33.8%	35.1%	26.6%	38.1%	–	–	–	–	–	stimulating effect	–	–	–	–
CC(C)[C@H](NC(=O)[C@H](CC(=O)O)NC(=O)[C@H](CCCCN)NC(=O)[C@H](CCCNC(=N)N)NC(=O)[C@@H]1CCC(=O)N1)C(=O)O [Glp--Arg--Lys--Asp--Val, Glp-Arg-Lys-Asp-Val] ([pGlu]RKDV-OH)	22.8%	23.2%	21.4%	19.4%	20.4%	–	–	–	–	–	–	–	9.0 ± 2.6	8.3 ± 0.6	7.2 ± 1.3	–	inhibiting activity	–	–	–
CC(C)[C@H](NC(=O)[C@H](CC(=O)O)NC(=O)[C@H](CCCNC(=N)N)NC(=O)[C@@H](N)CCCCN)C(=O)O [Lys--Arg--Asp--Val, Lys-Arg-Asp-Val] (H-KRDV-OH)	23.6%	25.8%	21.2%	25.7%	26.6%	31.5%	25.6%	30.0%	29.1%	32.9%	–	–	–	–	–	–	–	significantly stimulated	stimulating effect	–
N=C(N)NCCC[C@H](NC(=O)[C@@H]1CCC(=O)N1)C(=O)N[C@@H](CCCCN)C(=O)N[C@@H](CC(=O)O)C(=O)O [compound No. 8] ([pGlu]RKD-OH)	–	–	–	–	–	–	–	–	–	–	–	–	–	–	–	–	–	–	–	significant inhibiting activity
CC(C)[C@H](NC(=O)[C@H](CC(N)=O)NC(=O)[C@H](CCCCN)NC(=O)[C@@H](N)CCCNC(=N)N)C(=O)O [compound No. 9] (H-RKNV-OH)	–	–	–	–	–	–	–	–	–	–	–	–	–	–	–	–	–	–	–	significant inhibiting activity

Reference: patent US4428938A, “Peptides affecting the immune regulation and a process for their preparation” (Richter Gedeon Vegyeszeti Gyar Rt., priority 1981, dated 1984)
